Laboratory results reported in PubChem BioAssay AID248 (DTP/NCI, 2004).
Values joined by “and” are separate entries in the source; they are usually repeats but may differ in a detail not shown here. Equal entries are not always repeated. Inconclusive results and toxic doses are left out. Cut-off read from the data, not from the text of the source: active = T/C of 150% or more; inactive = T/C below 125%.

Test system: L1210 leukemia ip in BDF1 mice, survival T/C
Assay: NCI In Vivo Anticancer Drug Screen. Data for tumor model L1210 Leukemia (intraperitoneal) in B6D2F1 (BDF1) mice
Details: endpoint: mean survival time, higher = longer survival
Procedure, shortened: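 Survival endpoint. Drug-treated group vs vehicle group, expressed as T divided by C. Tumor passaged by transplantation.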

[1] = dose: 100.0 mg/kg/injection, schedule: Q01DX009 (ip), vehicle: saline with Tween-80
[2] = dose: 100.0 mg/kg/injection, schedule: Q04DX003 (ip), vehicle: saline with Tween-80
[3] = dose: 200.0 mg/kg/injection, schedule: Q01DX009 (ip), vehicle: saline with Tween-80
[4] = dose: 200.0 mg/kg/injection, schedule: Q04DX003 (ip), vehicle: saline with Tween-80
[5] = dose: 400.0 mg/kg/injection, schedule: Q01DX009 (ip), vehicle: saline with Tween-80
[6] = dose: 100.0 mg/kg/injection, schedule: Q01DX001 (ip), vehicle: saline with Tween-80
[7] = dose: 100.0 mg/kg/injection, schedule: Q01DX001 (ip), vehicle: saline
[8] = dose: 200.0 mg/kg/injection, schedule: Q01DX001 (ip), vehicle: saline
[9] = dose: 400.0 mg/kg/injection, schedule: Q01DX001 (ip), vehicle: saline
[10] = dose: 100.0 mg/kg/injection, schedule: Q04DX002 (ip), vehicle: saline with Tween-80
[11] = dose: 200.0 mg/kg/injection, schedule: Q04DX002 (ip), vehicle: saline with Tween-80
[12] = dose: 400.0 mg/kg/injection, schedule: Q04DX003 (ip), vehicle: saline with Tween-80
[13] = dose: 100.0 mg/kg/injection, schedule: Q01DX001 (ip), vehicle: carboxymethylcellulose (CMC)
[14] = dose: 200.0 mg/kg/injection, schedule: Q01DX001 (ip), vehicle: carboxymethylcellulose (CMC)
[15] = dose: 400.0 mg/kg/injection, schedule: Q01DX001 (ip), vehicle: carboxymethylcellulose (CMC)

Measured: T/C

C/C=C1\CCOC1=O
inactive: dose: 100.0 mg/kg/injection, schedule: Q04DX002 (ip), vehicle: saline 94 % of control | dose: 200.0 mg/kg/injection, schedule: Q04DX002 (ip), vehicle: saline 91 % of control | dose: 400.0 mg/kg/injection, schedule: Q04DX002 (ip), vehicle: saline 105 % of control

Cc1ccc(Cl)cc1NC(=O)/C=C/c1ccccc1
inactive: dose: 100.0 mg/kg/injection, schedule: Q01DX009 (ip), vehicle: Klucel (hydroxypropylcellulose) (HPC) 104 % of control | dose: 200.0 mg/kg/injection, schedule: Q01DX009 (ip), vehicle: Klucel (hydroxypropylcellulose) (HPC) 104 % of control | dose: 400.0 mg/kg/injection, schedule: Q01DX009 (ip), vehicle: Klucel (hydroxypropylcellulose) (HPC) 102 % of control

O=C(Nc1cc(C(F)(F)F)ccc1Cl)C(=O)Nc1cc(C(F)(F)F)ccc1Cl
inactive: dose: 100.0 mg/kg/injection, schedule: Q01DX009 (ip), vehicle: gum acacia 88 % of control | dose: 200.0 mg/kg/injection, schedule: Q01DX009 (ip), vehicle: gum acacia 93 % of control | dose: 400.0 mg/kg/injection, schedule: Q01DX009 (ip), vehicle: gum acacia 93 % of control

CN1CCc2c3n(c4ccccc24)C(=O)CCC31 (configuration not stated)
inactive: dose: 6.25 mg/kg/injection, schedule: Q01DX009 (ip), vehicle: saline 106 % of control | dose: 12.5 mg/kg/injection, schedule: Q01DX009 (ip), vehicle: saline 101 % of control | dose: 25.0 mg/kg/injection, schedule: Q01DX009 (ip), vehicle: saline 104 % of control

NC(=O)N/C=C1\CCCOC1=O
inactive: dose: 50.0 mg/kg/injection, schedule: Q01DX009 (ip), vehicle: saline with Tween-80 98 % of control | [1] 93 % of control and 91 % of control | [2] 96 % of control | [3] 98 % of control and 109 % of control | [4] 104 % of control | [5] 109 % of control

O/N=C1\CN2CCC1CC2
inactive: dose: 18.75 mg/kg/injection, schedule: Q04DX003 (ip), vehicle: saline 104 % of control | dose: 25.0 mg/kg/injection, schedule: Q01DX001 (ip), vehicle: saline with Tween-80 97 % of control | dose: 37.5 mg/kg/injection, schedule: Q04DX003 (ip), vehicle: saline 98 % of control | dose: 50.0 mg/kg/injection, schedule: Q01DX001 (ip), vehicle: saline with Tween-80 97 % of control | dose: 75.0 mg/kg/injection, schedule: Q04DX003 (ip), vehicle: saline 102 % of control | [6] 102 % of control

CS(=O)(=O)OCCCCCCOCCCCOCCCCOCCCCCCOS(C)(=O)=O
inactive: dose: 100.0 mg/kg/injection, schedule: Q01DX001 (ip), vehicle: Klucel (hydroxypropylcellulose) (HPC) 92 % of control | dose: 200.0 mg/kg/injection, schedule: Q01DX001 (ip), vehicle: Klucel (hydroxypropylcellulose) (HPC) 93 % of control | dose: 400.0 mg/kg/injection, schedule: Q01DX001 (ip), vehicle: Klucel (hydroxypropylcellulose) (HPC) 93 % of control

CC(=O)CC(=O)Nc1ccc(NC(C)=O)cc1
inactive: [7] 96 % of control | [8] 100 % of control | [9] 105 % of control

Cc1cc(Cl)nc2ccc(Cc3ccccc3)cc12
inactive: [7] 102 % of control | [8] 96 % of control | [9] 103 % of control

O=C(SC(=S)NCCNC(=S)SC(=O)c1ccccc1)c1ccccc1
inactive: dose: 50.0 mg/kg/injection, schedule: Q04DX002 (ip), vehicle: saline with Tween-80 95 % of control | [10] 87 % of control | [11] 98 % of control

O=C(Cl)/C=C/c1c(Cl)cccc1Cl
inactive: dose: 75.0 mg/kg/injection, schedule: Q01DX009 (ip), vehicle: Klucel (hydroxypropylcellulose) (HPC) 102 % of control | dose: 100.0 mg/kg/injection, schedule: Q04DX003 (ip), vehicle: Klucel (hydroxypropylcellulose) (HPC) 103 % of control | dose: 150.0 mg/kg/injection, schedule: Q01DX009 (ip), vehicle: Klucel (hydroxypropylcellulose) (HPC) 100 % of control | dose: 200.0 mg/kg/injection, schedule: Q04DX003 (ip), vehicle: Klucel (hydroxypropylcellulose) (HPC) 92 % of control | dose: 300.0 mg/kg/injection, schedule: Q01DX009 (ip), vehicle: Klucel (hydroxypropylcellulose) (HPC) 93 % of control

COC(OC)c1nc(NC(C)=O)[nH]c(=O)c1Cc1ccc(N)cc1
inactive: [1] 96 % of control | [2] 94 % of control | [3] 89 % of control | [4] 96 % of control | [5] 97 % of control | [12] 110 % of control

O=[N+]([O-])c1cc(S(=O)(=O)O)cc([N+](=O)[O-])c1NN(c1ccccc1)c1ccccc1
inactive: dose: 44.0 mg/kg/injection, schedule: Q04DX003 (ip), vehicle: other 100 % of control | dose: 87.0 mg/kg/injection, schedule: Q04DX003 (ip), vehicle: other 92 % of control | dose: 175.0 mg/kg/injection, schedule: Q04DX003 (ip), vehicle: other 103 % of control

COC(=O)c1c2ccccc2[n+](C)c2ccccc12
inactive: dose: 12.5 mg/kg/injection, schedule: Q04DX003 (ip), vehicle: saline 96 % of control | dose: 25.0 mg/kg/injection, schedule: Q04DX003 (ip), vehicle: saline 100 % of control | dose: 50.0 mg/kg/injection, schedule: Q04DX003 (ip), vehicle: saline 102 % of control

CC(=O)CCc1ccccc1
inactive: [13] 101 % of control | [14] 103 % of control | [15] 101 % of control

O=c1ccc2c(ccc3ncccc32)o1
inactive: dose: 50.0 mg/kg/injection, schedule: Q01DX009 (ip), vehicle: carboxymethylcellulose (CMC) 87 % of control | dose: 50.0 mg/kg/injection, schedule: Q04DX003 (ip), vehicle: carboxymethylcellulose (CMC) 117 % of control | dose: 100.0 mg/kg/injection, schedule: Q01DX009 (ip), vehicle: carboxymethylcellulose (CMC) 98 % of control | dose: 100.0 mg/kg/injection, schedule: Q04DX003 (ip), vehicle: carboxymethylcellulose (CMC) 111 % of control | dose: 200.0 mg/kg/injection, schedule: Q04DX003 (ip), vehicle: carboxymethylcellulose (CMC) 93 % of control

O=C(Nc1cccc2ccccc12)N1CCCc2ccccc21
inactive: dose: 50.0 mg/kg/injection, schedule: Q01DX001 (ip), vehicle: carboxymethylcellulose (CMC) 88 % of control | [13] 98 % of control | [14] 95 % of control | [15] 90 % of control

OC1(CCC2OCCO2)c2ccccc2-c2ccccc21
inactive: [6] 95 % of control | [1] 93 % of control | [10] 95 % of control and 100 % of control | [2] 96 % of control | dose: 200.0 mg/kg/injection, schedule: Q01DX001 (ip), vehicle: saline with Tween-80 90 % of control | [3] 96 % of control and 100 % of control | [11] 93 % of control and 102 % of control | [4] 96 % of control | dose: 400.0 mg/kg/injection, schedule: Q01DX001 (ip), vehicle: saline with Tween-80 93 % of control | [5] 96 % of control and 120 % of control | dose: 400.0 mg/kg/injection, schedule: Q04DX002 (ip), vehicle: saline with Tween-80 95 % of control | [12] 95 % of control
